From US11311568B2, “Therapeutic pharmaceutical composition for cancer including miRNA” (Purmx Therapeutics, Inc., priority 2017, dated 2022) come the findings set out here.

Series [1] relates to malignant pleural mesothelioma cells MSTO-211H. Put plainly: Antitumor effect in vivo, subcutaneous transplantation of MSTO-211H cells. The arrangement: species or system SCID mouse. The conditions noted are these: SCID mice, MSTO-211H subcutaneous, miRNA with A6K at tumor site, 13 administrations, 34 days after transplantation, FIG. 13. As for the experimental part:
In order to verify the antitumor effect of the miRNA of the present invention in vivo, experiments was performed with laboratory animals transplanted with malignant pleural mesothelioma cells.
Malignant pleural mesothelioma cells MSTO-211H cells were used.
1: The cells on the dish were washed twice with PBS (-).
2: The cells were detached with trypsin.
3: This was suspended in a medium, and cells were counted.
4: Centrifugation at a condition of 1000 rpm for 3 min was performed to pellet down.
5: The cells were resuspended in PBS (-) in order to obtain 2.0×10^7 cells/mL.
Six weeks-old C-B-17/Icr-scid/scid Jcl (SCID mouse) were used as mice. SCID mice were subcutaneously administered 100 μL of the prepared cell suspension, and the cells were allowed to settle.
Negative control which is the control sequence and miR-3140-3p which is the miRNA of the present invention were employed. A6K (from 3D Matrix) was employed as the nucleic acid delivery reagent. The administration of miRNA to mice was carried out with the following protocol.
1: 100 μM of the nucleic acid (miRNA) was diluted with 10% saline and sterilized water in order to obtain 71.4 μM.
2: 1% A6K solution was sonicated for 5 minutes before use.
3: The diluted nucleic acid and the 1% A6K solution were mixed at a proportion of 1:1 to give the administration nucleic acid. […]

Series [2] has as its system malignant pleural mesothelioma cell strain EHMES-10. Put plainly: Comparison of antitumor effect with cisplatin in vivo, pleural cavity transplantation. The arrangement: species or system mice (C-B-17/Icr-scid/scid Jcl). The conditions noted are these: miRNA/A6K in pleural cavity versus cisplatin 6 mg/kg intraperitoneal, EHMES-10 in pleural cavity, FIGS. 30-33. An excerpt:
In order to investigate the relative superiority of antitumor effect of miR-3140-3p, the tumor suppression effect of cisplatin which is the first-line drug of malignant pleural mesothelioma and the tumor suppression effect of miR-3140-3p were compared in vivo.
Six weeks-old male mice (C-B-17/Icr-scid/scid Jcl) were used as mice. Malignant pleural mesothelioma cell strain EHMES-10 which expresses the luciferase gene was used as the tumor cell.
The protocol is shown below.
1: Mice were intraperitoneally administered 0.1 mL per 10 g of body weight of a mixed anesthetic drug of medetomidine hydrochloride, midazolam, and butorphanol tartrate.
2: After anesthesia, mouse chest hair was shaved, and an incision was made in the epidermis with scissors.
3: In the mouse pleural cavity 100 μL of tumor cells (3×10^7 cells/mL) was transplanted with a 27 G syringe for insulin.
4: Four days after transplantation, imaging of tumor cells was performed with IVIS Spectrum CT In vivo Imaging System.
5: After imaging, grouping was performed with successfully transplanted mice.
6: Mice were intraperitoneally administered 0.1 mL per 10 g of body weight of a mixed anesthetic drug of medetomidine hydrochloride, midazolam, and butorphanol tartrate to anesthetize the mice. […]

Series [3] has as its system large intestine cancer cell strain HT29. In words: Cell growth inhibition, cell count after transfection. The format is cell-based. The conditions noted are these: HT29, final concentration 10.0 nM, seven days after transfection, FIG. 12. As for the experimental part: (§1) miR-3140-3p was transfected into large intestine cancer cell strains (SW620, SW480, and HT29), and cell proliferation was observed. Transfection was carried out with the following protocol.
(§2) 1: To a 35 mm dish were added 500 μL of serum free medium (SFM) and 5 μL of RNAiMAX (Invitrogen).
(§3) 2: To the solution from 1 was added 12.5 μL each of miR-Control or miR-3140-3p, miR-22-3p, and miR-34a-5p (stock conc. 2 μM) (final concentration 10.0 nM).
(§4) 3: This was incubated at room temperature for 20 minutes.
(§5) 4: 1.5 mL of a cell suspension diluted to 6.7×10^4 cells/mL was added to the 35 mm dish.
(§6) 5: This was incubated at 37° C. under 5% CO2 condition.
(§7) 6: The cells were counted seven days after transfection.
(§8) Setting the number of control introduction cells as 100%, the survival rate of cells in which miR-3140-3p was introduced was shown in %.

Series [4] relates to large intestine cancer cell strain SW480. The series is described as above. The format is cell-based. The conditions noted are these: SW480, final concentration 10.0 nM, seven days after transfection, FIG. 12. As for the experimental part: as §1, §2, §3, §4, §5, §6, §7, §8
Series [5] has as its system large intestine cancer cell strain SW620. Described as above. The series is classed as cell-based. The conditions noted are these: SW620, final concentration 10.0 nM, seven days after transfection, FIG. 12. As for the experimental part: as §1, §2, §3, §4, §5, §6, §7, §8
Series [6] relates to breast cancer stem cell strain (MDA-MB231-luc-D3H2LN cells). Put plainly: Annexin V apoptosis marker expression by FACS. The series is classed as cell-based. The conditions noted are these: six days after transfection, FIG. 10 bottom. As for the experimental part:
Moreover, by the protocol below, the expression of apoptosis marker Annexin V in breast cancer cells transfected with miR-3140-3p was analyzed.
1: Transfection of miR-3140-3p was performed with a protocol similar to that described above.
2: Six days after transfection, cells were recovered together with the supernatant.
3: Samples for FACS were prepared according to the protocol of the Annexin V assay kit.
4: Cells stained by Annexin V-FITC were stained with an antibody against cancer stem cell marker CD44 (eBioScience).
5: The prepared samples were analyzed with Cell Sorter (SONY).

For the substance “miR-3140-3p: Mature-miRNA, AGCUUUUGGGAAUUCAGGUAGU (SEQ ID NO. 2) (listed as RNA, chemistry not given here; listed as Homo sapiens)”, the “tumor weight at endpoint compared to the control group” value in series [1] is listed as “significantly lower”. The “antitumor effect (tumor suppression, survival rates) compared with cisplatin” value in series [2] is “equivalent or higher compared to cisplatin”. The “cell growth inhibition effect (survival rate of cells, control = 100%)” value in series [3], in series [4] and in series [5] was “extremely high cell growth inhibition effect” in each case. In addition, in series [6], the “apoptosis marker Annexin V positive” value is 96.97%.
